Experimental findings from paper PMC6874057, “Synthesis of Chalcone Derivatives: Inducing Apoptosis of HepG2 Cells via Regulating Reactive Oxygen Species and Mitochondrial Pathway” (Frontiers in Pharmacology, 2019) are described below.

One assay concerns Hela. As to the kind of experiment: MTT cell viability assay, Hela. In kind it is cell-based, human. The conditions noted are these: Homo sapiens, HeLa, 48 h, mean ± SE. The procedure: (§1) HeLa, A549, HepG2, HL-60, and WI-38 cell lines were incubated in DMEM solution containing 10% FBS for 48 h. The incubated tumor cells were seeded into 96-well plates (5 × 10^3 cells/well) to make them attach for 12 h. Afterwards, the cells were processed with the various concentrations of the synthetic compounds and 5-FU for 48 h. After removing the cell culture supernatant, 10 µl MTT (5 mg/ml) solution was dripped into the cells to generate a formazan product, which were dissolved by dimethyl sulfoxide (DMSO) 4 h later. Multifunction microplate reader (Bio-Rad Laboratories, Shanghai, China) was adopted to measure the absorbance at the wave length of 490 nm. The IC50 (the lowest drug concentration causing 50% of the tumor cells inhibition) was then calculated using GraphPad Prism Software (version 5.02) and used to indicate the cytotoxic effect of the target compounds on the selected tumor cells.

A further assay relates to HepG2. The assay is described as follows: MTT cell viability assay, HepG2. The conditions noted are these: Homo sapiens, HepG2, 48 h, mean ± SE. In kind it is cell-based, human. The procedure: as §1
On the technique in general: Tetrazolium dyes change colour on reduction, which living cells bring about.

The subject of another assay is HL-60. As to the kind of experiment: MTT cell viability assay, HL-60. In kind it is cell-based, human. The conditions noted are these: Homo sapiens, HL-60, 48 h, mean ± SE. The procedure: as §1
Another assay concerns WI-38. As to the kind of experiment: MTT cell viability assay, normal cell line WI-38. In kind it is cell-based, human. The note with it: Homo sapiens, WI-38, 48 h, normal cells, mean ± SE. Here is the method:
as §1

In assay [1] the test system is adherent tumor cell lines (HepG2, A549 and Hela). As to the kind of experiment: MTT assay, summary over adherent tumor cell lines. In kind it is cell-based. The note with it: Homo sapiens; span of IC50 over compounds a11-a14 and adherent tumor cell lines; read-out: IC50 range over cell lines. The procedure: as §1
Assay [2] deals with HepG2 cells. As to the kind of experiment: Annexin V-Alexa Fluor 647/PI staining, flow cytometry. In kind it is cell-based, human. The note with it: 48 h. Here is the method: HepG2 cells were seeded into six-well plates (3 × 10^5/well) overnight to allow the cells to grow adherently and then incubated with a14 at the concentrations of 0, 30, 40, 50, 60 or 70 µM for 48 h. In order to assess apoptosis, the double Annexin V-Alexa Fluor 647/PI (Beijing Solarbio Science & Technology Co., Ltd) immunofluorescence labeling method was used. After the cells were collected by centrifugation, 5 µl of Annexin V-Alexa Fluor 647 and 10 µl of PI solution (20 ug/ml) were added to each well. The cells were mixed and incubated at room temperature for 15 min in the dark and then mixed with 400 µl of PBS. Then, a Beckman Coulter flow cytometer (Beckman Coulter, Inc. California) was used to monitor the fluorescence. Ten thousand events were collected for each sample, and the data were analyzed via Flow Jo-V10 software.
A general note: A flow cytometer gives signals particle by particle.

Assay [3] concerns HepG2 cells. As to the kind of experiment: Cell cycle arrest by PI staining, flow cytometry. In kind it is cell-based, human. The conditions noted are these: for G2/M: 24 h. The procedure: HepG2 cells were seeded into six-well plates (3 × 10^5/well) overnight to allow the cells to grow adherently and then incubated with a14 at the concentrations of 0, 30, 40, 50, 60 or 70 µM for 24 and 48 h. After the incubation time, the cells were collected by centrifugation (1000 r/min) and fixed overnight with […] ethanol at 4°C, and then the cells were removed and washed three times with ice-cold PBS. Afterwards, the cells were added to RNase A (Beijing Solarbio Science & Technology Co., Ltd.), and incubated for 30 min at 37°C, after which PI (Beijing Solarbio Science & Technology Co., Ltd.) was added. The fluorescence was monitored by a Beckman Coulter flow cytometer (Beckman Coulter, Inc. California). Ten thousand events were collected per sample, and the data were analyzed using Modfit LT 5.0 software.

Assay [4] has as its system mitochondrial membrane potential in HepG2 cells. As to the kind of experiment: Mitochondrial membrane potential by JC-1 probe. In kind it is cell-based, human. The note with it: a14 50 µM. The procedure:
JC-1 probe was used to detect changes in MMP. Firstly, HepG2 cells (3 × 10^5 cells/well) were seeded into a six-well plate overnight for adherence, and then treated with various concentrations of a14 for 48 h. Next, the cells were treated with JC-1 (2.5 µg/ml) at 37°C for 10 min in the dark and rinsed three times with PBS. Then, the six-well plate was placed under the fluorescence microscope (excitation 480/30× nm, emission 515 nm) to observe the fluorescence color and intensity of JC-1 in the cells. In addition, HepG2 cells (3 × 10^5 cells/well) were inoculated on another six-well plate overnight to allow adherence, and then treated with a14 (50 µM) for 0, 12, 24, 36, and 48 h, adding CCCP (without a14) for 20 min to completely lose the mitochondrial membrane potential. Cells were then incubated with JC-1 (2.5 µg/ml) at 37°C in the dark for 10 min and rinsed with PBS for three times. Fluorescence intensity of residual JC-1 in cells was measured by Beckman Coulter flow cytometer (FITC, 525/40BP). The data obtained was analyzed by CytExpert 2.0 software imbedded in the flow cytometry.

A further assay concerns PARP in HepG2 cells. The assay is described as follows: Western blot, PARP and cleaved PARP. The assay is classed as cell-based, human. The note with it: 48 h, compared to the control group; in words. The procedure:
HepG2 cells (3 × 10^5 cells/well) were seeded into a six-well plate overnight for adherence, and then treated with a14 (0, 30, 40, 50, 60, and 70 µM) for 48 h. After the cells were collected by centrifugation, they were lysed with the radio immunoprecipitation assay (RIPA) buffer (high) containing 50 mM Tris (pH = 7.4), 150 mM NaCl, 1% TritonX-100, 1% sodium deoxycholate, 0.1% sodium dodecyl sulfate (SDS), 2 mM sodium pyrophosphate, 25 mM β-glycerophosphate, 1 mM ethylenediaminetetraacetic acid (EDTA), 1 mM Na3VO4, and 0.5 ug/ml leupeptin (Beijing Solarbio Science & Technology Co., Ltd.).The extract was then centrifuged at 12,000 rpm for 30 min and the total protein concentration was quantified using the BCA kit (Beijing Solarbio Science & Technology Co., Ltd.). The protein extracts were mixed with the SDS-PAGE protein loading buffer (Beijing Solarbio Science & Technology Co., Ltd.) and then boiled in 100°C water bath for 10 min. The gel was gelatinized using an SDS Gel Kit (Beijing Solarbio Science & Technology Co., Ltd.) and protein extracts were separated by protein SDS-polyacrylamide gel electrophoresis and transferred to Immobilon-NC Membrane (Beijing Solarbio Science & Technology Co., Ltd.). […]
(In general: A western blot detects proteins with antibodies after separation by electrophoresis.)

The term IC50 denotes the concentration that gives 50% inhibition. Take `COc1cc(/C=C/C(=O)c2ccc(O)c(C(N)=O)c2)cc(OC)c1OC` [a14]: the 50% inhibitory concentration (IC50) in the assay on Hela is 23.3 ± 2.35 µM; in the assay with HepG2, 38.3 ± 0.59 µM; with HL-60, 121 ± 3.58 µM; in the assay with WI-38 it was 121.3 ± 0.87 µM; in assay [1], 23.3 to 54.4 µM. For the same compound, the Early apoptosis with HepG2 cells [2] (a14 30 µM) is recorded as 3.10%; in the assay with HepG2 cells [2] (a14 70 µM), 28.62%. Further, the Late apoptosis stood at 9.45% in the assay with HepG2 cells [2] (a14 30 µM) and 32.89% with HepG2 cells [2] (a14 70 µM). In addition, the “increase of percentage of early apoptosis compared with the untreated group” value in the assay on HepG2 cells [2] (a14 50 µM) is 28.35%. Moreover, the “increase of percentage of late apoptosis compared with the untreated group” value in the assay on HepG2 cells [2] (a14 50 µM) was determined as 13.51%. The results for the G2/M with HepG2 cells [3] (a14 30 µM) and in the assay with HepG2 cells [3] (a14 70 µM) were 19.07% and 79.57%, respectively. Further, the “increase of percentage of G2/M compared with the untreated group” value in the assay on HepG2 cells [3] (a14 50 µM, 48 h) worked out at 73.82%. The “JC-1 (FITC), right of the gate line (green fluorescence)” value in assay [4] (48 h (untreated 50.08%)) came to 91.94%. For the same compound, in assay [4] (48 h, in words), the “JC-1 fluorescence colour under the fluorescence microscope” value is given as “almost all cells had shown green fluorescence”. Further, in the assay with PARP in HepG2 cells, the “expression level of PARP” value was “decrease”. Further, in the assay with PARP in HepG2 cells, the “level of cleaved PARP proteins” value is reported as “increase”.
